# ± gives the expanded uncertainty stated by the source.
# Settings: Crystal 2; DSC
structure (smiles),measurement,value
O=[Si]=O [silicon dioxide],Triple point temperature,848 ± 2 K

# Reference: the NIST ThermoML archive (doi:10.1016/j.jct.2018.01.019)
